7 compounds from patent US12528947B2, “Infrared-absorbing composition, film, optical filter, solid-state imaging element, image display device, and infrared sensor” (FUJIFILM Corporation, priority 2020, dated 2026) can be followed below.

Molecules are shown by their SMILES.

Data set [1] in a line: Evaluation of dissolved amount of infrared-absorbing coloring agent. It counts as physicochemical. To be noted: 25° C., after stirring for 1 hour. As for the experimental part: The infrared-absorbing coloring agent shown in the tables below was added to a measurement solvent shown in the tables below, while the temperature was adjusted to 25° C. under atmospheric pressure. After stirring for 1 hour, the dissolved amount of each infrared-absorbing coloring agent in the measurement solvent at 25° C. was determined. The dissolved amount of the infrared-absorbing coloring agent was evaluated based on the following standard. A case of A was judged to be a good solvent, and a case of B was judged to be a poor solvent. The infrared-absorbing coloring agent exists as particles in the poor solvent. PGMEA described in the column of measurement solvent in the following tables is an abbreviation for propylene glycol monomethyl ether acetate. • A: dissolved amount of the infrared-absorbing coloring agent in 100 g of the measurement solvent at 25° C. was 0.1 g or more. • B: dissolved amount of the infrared-absorbing coloring agent in 100 g of the measurement solvent at 25° C. was less than 0.1 g.

Data set [2] is described as follows: Maximal absorption wavelength of infrared-absorbing coloring agent in good solvent. The data set is classed as physicochemical. To be noted: coloring agent solution in dimethyl sulfoxide; for λmax: largest absorbance in 650 to 1500 nm; for Number of maximal absorption wavelengths: wavelength range 650 to 1500 nm. As for the experimental part: Each infrared-absorbing coloring agent was dissolved in a solvent (good solvent) descried in the following table to prepare a coloring agent solution having a concentration of infrared-absorbing coloring agent of […], and absorption spectrum of the coloring agent solution was measured. The number of maximal absorption wavelengths existing in a wavelength range of 650 to 1500 nm and the wavelength (max) indicating the value having the largest absorbance are shown in the following table.

Regarding `Cc1ccccc1-c1c2/c(=C(\C#N)c3ccc4ccccc4n3)n(B(c3ccccc3)c3ccccc3)c(-c3ccc(OCCO)cc3)c2/c(=C(\C#N)c2ccc3ccccc3n2)n1B(c1ccccc1)c1ccccc1` [Comparative coloring agent 1, reference compound], the Solubility result in data set [1] (Cyclopentanone) was “B (dissolved amount of the infrared-absorbing coloring agent in 100 g of the measurement solvent at 25 °C was less than 0.1 g)”; in data set [1] (Dimethyl sulfoxide), “A (dissolved amount of the infrared-absorbing coloring agent in 100 g of the measurement solvent at 25 °C was 0.1 g or more)”; in data set [1] (PGMEA) it was “B (dissolved amount of the infrared-absorbing coloring agent in 100 g of the measurement solvent at 25 °C was less than 0.1 g)”; in data set [1] (Water), “B (dissolved amount of the infrared-absorbing coloring agent in 100 g of the measurement solvent at 25 °C was less than 0.1 g)”. The compound further had a λmax in data set [2] of 819 nm. In data set [2], the “Number of maximal absorption wavelengths” value is on record as 2.
As for `Cc1ccccc1-c1c2/c(=C(\C#N)c3ccc4ccccc4n3)n(B(c3ccccc3)c3ccccc3)c(-c3ccc(OCCCCS(=O)(=O)O)cc3)c2/c(=C(\C#N)c2ccc3ccccc3n2)n1B(c1ccccc1)c1ccccc1` [Example A-1], the Solubility result in data set [1] (Cyclopentanone) is “B (dissolved amount of the infrared-absorbing coloring agent in 100 g of the measurement solvent at 25 °C was less than 0.1 g)”; in data set [1] (Dimethyl sulfoxide) it was “A (dissolved amount of the infrared-absorbing coloring agent in 100 g of the measurement solvent at 25 °C was 0.1 g or more)”; in data set [1] (PGMEA), “B (dissolved amount of the infrared-absorbing coloring agent in 100 g of the measurement solvent at 25 °C was less than 0.1 g)”; in data set [1] (Water) it was “B (dissolved amount of the infrared-absorbing coloring agent in 100 g of the measurement solvent at 25 °C was less than 0.1 g)”. The compound also came in with a λmax in data set [2] of 819 nm. Besides, the “Number of maximal absorption wavelengths” value in data set [2] worked out at 2.
Regarding `Cc1ccccc1-c1c2/c(=C(\C#N)c3nc4ccccc4s3)n(B(c3ccccc3)c3ccccc3)c(-c3ccc(OCCCN(C)C)cc3)c2/c(=C(\C#N)c2nc3ccccc3s2)n1B(c1ccccc1)c1ccccc1` [Example A-3], the Solubility result in data set [1] (Cyclopentanone) is “B (dissolved amount of the infrared-absorbing coloring agent in 100 g of the measurement solvent at 25 °C was less than 0.1 g)”; in data set [1] (Dimethyl sulfoxide), “A (dissolved amount of the infrared-absorbing coloring agent in 100 g of the measurement solvent at 25 °C was 0.1 g or more)”; in data set [1] (PGMEA), “B (dissolved amount of the infrared-absorbing coloring agent in 100 g of the measurement solvent at 25 °C was less than 0.1 g)”; in data set [1] (Water) it was “B (dissolved amount of the infrared-absorbing coloring agent in 100 g of the measurement solvent at 25 °C was less than 0.1 g)”. Also, in data set [2], the λmax came to 780 nm. For the same compound, the “Number of maximal absorption wavelengths” value in data set [2] came out at 2.
In the case of `Cc1ccccc1-c1c2/c(=C(\C#N)c3nc4ccccc4s3)n(B(c3ccccc3)c3ccccc3)c(-c3ccc(OCCCCS(=O)(=O)O)cc3)c2/c(=C(\C#N)c2nc3ccccc3s2)n1B(c1ccccc1)c1ccccc1` [Example A-4], the Solubility entry is “B (dissolved amount of the infrared-absorbing coloring agent in 100 g of the measurement solvent at 25 °C was less than 0.1 g)” in data set [1] (Cyclopentanone), “A (dissolved amount of the infrared-absorbing coloring agent in 100 g of the measurement solvent at 25 °C was 0.1 g or more)” in data set [1] (Dimethyl sulfoxide), “B (dissolved amount of the infrared-absorbing coloring agent in 100 g of the measurement solvent at 25 °C was less than 0.1 g)” in data set [1] (PGMEA) and “B (dissolved amount of the infrared-absorbing coloring agent in 100 g of the measurement solvent at 25 °C was less than 0.1 g)” in data set [1] (Water). The compound also gave a λmax in data set [2] of 779 nm. For the same compound, the “Number of maximal absorption wavelengths” value in data set [2] is recorded as 2.
Regarding `Cc1ccccc1-c1c2/c(=C(\C#N)c3nc4ccc(Cl)cc4o3)n(B(c3ccccc3)c3ccccc3)c(-c3ccc(OCCCS(=O)(=O)O)cc3)c2/c(=C(\C#N)c2nc3ccc(Cl)cc3o2)n1B(c1ccccc1)c1ccccc1` [Example A-5], the Solubility result in data set [1] (Cyclopentanone) was “B (dissolved amount of the infrared-absorbing coloring agent in 100 g of the measurement solvent at 25 °C was less than 0.1 g)”; in data set [1] (Dimethyl sulfoxide), “A (dissolved amount of the infrared-absorbing coloring agent in 100 g of the measurement solvent at 25 °C was 0.1 g or more)”; in data set [1] (PGMEA), “B (dissolved amount of the infrared-absorbing coloring agent in 100 g of the measurement solvent at 25 °C was less than 0.1 g)”; in data set [1] (Water), “B (dissolved amount of the infrared-absorbing coloring agent in 100 g of the measurement solvent at 25 °C was less than 0.1 g)”. This compound showed a λmax in data set [2] of 746 nm. Also, the “Number of maximal absorption wavelengths” value in data set [2] was 2.
In the case of `COc1ccc2nc(/C(C#N)=c3/c4c(-c5ccccc5C)n(B(c5ccccc5)c5ccccc5)/c(=C(/C#N)c5nc6ccc(OC)cc6s5)c4c(-c4ccc(OCCCCS(=O)(=O)O)cc4)n3B(c3ccccc3)c3ccccc3)sc2c1` [Example A-6], the Solubility entry in data set [1] (Cyclopentanone) was “B (dissolved amount of the infrared-absorbing coloring agent in 100 g of the measurement solvent at 25 °C was less than 0.1 g)”; in data set [1] (Dimethyl sulfoxide), “A (dissolved amount of the infrared-absorbing coloring agent in 100 g of the measurement solvent at 25 °C was 0.1 g or more)”; in data set [1] (PGMEA), “B (dissolved amount of the infrared-absorbing coloring agent in 100 g of the measurement solvent at 25 °C was less than 0.1 g)”; in data set [1] (Water), “B (dissolved amount of the infrared-absorbing coloring agent in 100 g of the measurement solvent at 25 °C was less than 0.1 g)”. In addition, the λmax in data set [2] was 801 nm. In addition, the “Number of maximal absorption wavelengths” value in data set [2] was determined as 2.
Turning to `Cc1ccccc1-c1c2/c(=C(\C#N)c3nc4ccc(Br)cc4o3)n(B(c3ccccc3)c3ccccc3)c(-c3ccc(OCCCS(=O)(=O)O)cc3)c2/c(=C(\C#N)c2nc3ccc(Br)cc3o2)n1B(c1ccccc1)c1ccccc1` [Example A-7], the Solubility entry in data set [1] (Cyclopentanone) is “B (dissolved amount of the infrared-absorbing coloring agent in 100 g of the measurement solvent at 25 °C was less than 0.1 g)”; in data set [1] (Dimethyl sulfoxide), “A (dissolved amount of the infrared-absorbing coloring agent in 100 g of the measurement solvent at 25 °C was 0.1 g or more)”; in data set [1] (PGMEA), “B (dissolved amount of the infrared-absorbing coloring agent in 100 g of the measurement solvent at 25 °C was less than 0.1 g)”; in data set [1] (Water) it was “B (dissolved amount of the infrared-absorbing coloring agent in 100 g of the measurement solvent at 25 °C was less than 0.1 g)”. In addition, the λmax in data set [2] is 747 nm. In data set [2], the “Number of maximal absorption wavelengths” value is given as 2.
